Activity calls are given as the source filed them. The calls are words filed in the database; no cut-off is given here.

The source of these data is ChEMBL document CHEMBL3124776, “Discovery of novel urea derivatives as dual-target hypoglycemic agents that activate glucokinase and PPARγ” (Eur J Med Chem, 2014).

Data set [1] concerns the target T1, Peroxisome proliferator-activated receptor gamma (Homo sapiens) (UniProt P37231).
T1 sequence (whole entry): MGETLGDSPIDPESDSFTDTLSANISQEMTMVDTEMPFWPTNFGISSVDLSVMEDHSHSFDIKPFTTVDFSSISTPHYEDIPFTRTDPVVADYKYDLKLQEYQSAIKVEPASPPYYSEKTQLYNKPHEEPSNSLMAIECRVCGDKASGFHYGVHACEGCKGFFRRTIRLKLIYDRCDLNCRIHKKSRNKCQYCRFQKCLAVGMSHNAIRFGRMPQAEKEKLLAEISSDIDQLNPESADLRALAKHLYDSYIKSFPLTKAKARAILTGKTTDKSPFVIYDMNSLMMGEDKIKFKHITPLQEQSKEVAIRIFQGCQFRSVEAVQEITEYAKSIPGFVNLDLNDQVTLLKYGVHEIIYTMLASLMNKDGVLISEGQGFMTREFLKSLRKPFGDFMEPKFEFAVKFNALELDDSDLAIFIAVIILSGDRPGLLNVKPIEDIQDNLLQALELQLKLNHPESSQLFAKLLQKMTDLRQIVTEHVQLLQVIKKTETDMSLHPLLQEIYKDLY
Briefly: Activation of PPAR-gamma (unknown origin) transfected in human U2OS cells assessed as increase in transcriptional activity at 10^-6 M after 24 hrs by luciferase reporter gene assay. It counts as cell-based. For orientation: A reporter such as luciferase makes a cellular process visible.

Data set [2] concerns the target T1, Peroxisome proliferator-activated receptor gamma (Homo sapiens). Briefly: Activation of PPAR-gamma (unknown origin) transfected in human U2OS cells assessed as increase in transcriptional activity at 10^-6 M after 24 hrs by luciferase reporter gene assay relative to rosiglitazone. Format: cell-based.
Data set [3] deals with Mus musculus. Briefly: Hypoglycemic activity in ICR mouse assessed as decrease in blood glucose level at 50 mg/kg, po after 4 hrs by OGTT relative to control. Format: functional. Details: scale not given: the % may be the effect or the level left.
For data set [4], the system named is Mus musculus. Briefly: Hypoglycemic activity in ICR mouse assessed as decrease in blood glucose level at 50 mg/kg, po after 6 hrs by OGTT relative to control. Details: scale not given: the % may be the effect or the level left. Format: functional.
For data set [5], the system named is Mus musculus. Briefly: Hypoglycemic activity in ICR mouse assessed as reduction of blood glucose AUC (0 to 120 mins) at 50 mg/kg, po qd administered for 3 days followed by glucose challenge for 40 mins on day 3 post last dose by OGTT relative to control. It counts as functional. Details: scale not given: the % may be the effect or the level left.
Another data set is filed under the species Homo sapiens. Briefly: Selectivity for PPAR-gamma (unknown origin) over PPAR-alpha (unknown origin).
The subject of data set [6] is Mus musculus. The experiment in a line: Hypoglycemic activity in ICR mouse assessed as decrease in blood glucose level at 50 mg/kg, po after 2 hrs by OGTT relative to control. It counts as functional.
Data set [7] is described as follows: MRT (0 to t) in ICR mouse at 50 mg/kg, po. Conditions: in vivo. Details: dose 50 mg/kg, route oral. Format: ADME, organism-based.
Data set [8] is described as follows: AUC (0 to t) in ICR mouse at 50 mg/kg, po. Format: ADME, organism-based. Details: dose 50 mg/kg, route oral. As to conditions: plasma.
Data set [9] in a line: Tmax in ICR mouse at 50 mg/kg, po. Details: dose 50 mg/kg, route oral. As to conditions: in vivo. It counts as ADME, organism-based.
Data set [10] is described as follows: Cmax in ICR mouse at 50 mg/kg, po. Conditions: in vivo. Details: dose 50 mg/kg, route oral. It counts as ADME, organism-based.

`CCCN(C(=O)Nc1nc2ccc(C)cc2s1)c1ccc(OC(C)(C)C(=O)O)cc1`: the outcome in data set [1] was Active.
As to `CCCCCN(C(=O)Nc1nc2ccc(C)cc2s1)c1ccc(OC(C)(C)C(=O)O)cc1`, the Activity in data set [2] was above 38.8%; in the data set with Mus musculus [3], 22.6%; with Mus musculus [4], 20%.
As for `CCOC(=O)C(C)(C)Oc1ccc(N(CC=C(C)C)C(=O)Nc2nccs2)cc1`, the result in [1] was Active.
As to `CC(C)(Oc1ccc(N(Cc2cccc(F)c2)C(=O)Nc2nc3ccccc3s2)cc1)C(=O)O`, in data set [1], the outcome was Active.
Consider `CCCCCN(C(=O)Nc1nccs1)c1ccc(OC(C)(C)C(=O)OCC)cc1`, for which the Activity was above 38.8% in data set [2] and 10% in the data set on Mus musculus [5].
Regarding `CC(C)CCN(C(=O)Nc1nc2ccccc2s1)c1ccc(OC(C)(C)C(=O)O)cc1`, in data set [1], the result was Active.
Turning to `CC(C)(Oc1ccc(CCN(CC2CCCCC2)C(=O)Nc2ccc(F)cc2F)cc1)C(=O)O`, the Selectivity ratio in the data set filed under Homo sapiens is 10.
On to `CCCCCN(C(=O)Nc1nccs1)c1ccc(OC(C)(C)C(=O)O)cc1`, for which the Activity was above 38.8% in data set [2] and 34.6% with Mus musculus [5]. The result with Mus musculus [6] and in the data set on Mus musculus [3] was Active. Moreover, the MRT last – broadly, the average time that molecules of a dose stay in the body – in [7] turned out to be 67.8 min. The AUC(0-t) – broadly, exposure summed from dosing to a finite time, without extrapolation to infinity – in [8] is 98000 ng·h/mL. Further, the time to peak (Tmax) (usually the time from dosing to the highest level) in data set [9] came to 30 min. The highest level in data set [10] (Cmax) was 77.8 µg/mL.
Turning to `C=CCN(C(=O)Nc1nccs1)c1ccc(OC(C)(C)C(=O)OCC)cc1`, the Activity in data set [2] was above 38.8%.
Turning to `CC(C)(Oc1ccc(N(CC2CCCCC2)C(=O)Nc2nc3ccccc3s2)cc1)C(=O)O`, the Activity in data set [2] was above 38.8%.
In the case of `CC(C)Oc1cc(OCCc2ccsc2)cc(C(=O)Nc2ccc(C(=O)O)cn2)c1`, the values for the Activity in the data set with Mus musculus [6], in the data set on Mus musculus [3] and in the data set on Mus musculus [4] were 29.7%, 41.8% and 24.4%, respectively.
Turning to `CCOC(=O)C(C)(C)Oc1ccc(N(Cc2ccco2)C(=O)Nc2nccs2)cc1`, in [1], the result was Active.
